In publication PMC3608651, “A Broad Profile of Co-Dominant Epitopes Shapes the Peripheral Mycobacterium tuberculosis Specific CD8+ T-Cell Immune Response in South African Patients with Active Tuberculosis” (PLoS ONE, 2013):
Like-named read-outs stand apart in the source and are kept apart here.

Columns and labels:
Assay type in all cases: binding
[1] = biological target: T1, HLA-A*02:01 (Homo sapiens, UniProt P04439, D140Y/D185E/D98H/E176V/E277Q/G131W/G231S/I119V/I121R/I166T/I218V/L300P/L318F/N151K/N90K/P208A/P217A/Q86G/Q94H/R138H/R169H/T345S); conditions: plate-bound monomer 0.5 µg/ml, duplicated experiments, positive binder >40%
[2] = biological target: T1, HLA-A*02:01; conditions: […]; peptide quantity for 50% binding saturation
[3] = biological target: T1, HLA-A*02:01; conditions: time points 0-8 h; time when 50% of peptide has dissociated
[4] = biological target: T2, HLA-A*24:02 (Homo sapiens, UniProt P04439, D101N/D140Y/D185E/E176V/E190D/F33S/G103R/G107R/I119L/I121M/I306V/K335N/L105A/L180Q/L300P/N151K/N90K/Q86E/Q94H/R106L/R138H/R89G/T104I/T345S/V100E/W191G/Y123F); conditions: duplicated experiments, positive binder >40%
[5] = biological target: T2, HLA-A*24:02
[6] = biological target: T2, HLA-A*24:02; conditions: time points 0-8 h
[7] = biological target: HLA-A*30:01 (Homo sapiens, UniProt P04439, D140H/D185E/E176W/F33S/G80R/H175R/K168Q/R138E/R41S); conditions: duplicated experiments, positive binder >40%
[8] = biological target: T3, HLA-A*30:02 (Homo sapiens, UniProt P04439, D101N/D140H/D185E/E176R/F33S/G80R/H175R/K168Q/Q94H/R138E/R41S/V100E); conditions: duplicated experiments, positive binder >40%
[9] = biological target: HLA-B*07:02 (Homo sapiens, UniProt P01889); conditions: percent relative the binding of positive control peptide […]; duplicated experiments; positive binder >40%
[10] = biological target: T4, HLA-B*58:01 (Homo sapiens, UniProt P01889, A329T/C349S/D201E/D98Y/E176V/E187L/E204Q/E69T/G107R/I218V/I90N/K202T/L105A/L119I/N104I/N87E/Q89R/Q94S/R106L/R155S/R180L/R86G/S101N/S121R/S35A/S48A/T118I/V127L/V306I/V36M/Y140S/Y91M); conditions: duplicated experiments, positive binder >40%
[11] = biological target: T4, HLA-B*58:01
[12] = biological target: T5, HLA-C*07:01 (Homo sapiens, UniProt P10321, K90N/S123Y); conditions: duplicated experiments, positive binder >40%
[13] = biological target: T6, HLA-A*68:01 (Homo sapiens, UniProt P04439, A269V/D185E/E176V/E277Q/E87N/F33Y/G231S/I121M/I166T/I218V/L180W/L300P/L318F/N151K/P208A/P217A/Q86R/R169H/T345S); conditions: duplicated experiments, positive binder >40%
[14] = biological target: T5, HLA-C*07:01; assay: affinity assay (ED50)
[15] = biological target: T5, HLA-C*07:01; assay: off-rate assay (t1/2); conditions: time points 0-8 h
[16] = biological target: T4, HLA-B*58:01; conditions: time points 0-8 h
[17] = biological target: T3, HLA-A*30:02
[18] = biological target: T3, HLA-A*30:02; conditions: time points 0-8 h
[19] = biological target: T6, HLA-A*68:01
[20] = biological target: T6, HLA-A*68:01; conditions: time points 0-8 h
[21] = percent relative the binding of positive control peptide […]
[22] = peptide titrated 10−4 to 10−9 M

Substance	Bind A*02:01 [1, 21] [%]	Bind A*24:02 [4, 21] [%]	Bind A*30:01 [7, 21] [%]	Bind A*30:02 [8, 21] [%]	Bind B*07:02 [9] [%]	Bind B*58:01 [10, 21] [%]	Aff B*58:01 (ED50) [11]	Bind C*07:01 [12, 21] [%]	Bind A*68:01 [13, 21] [%]	Aff C*07:01 (ED50) [14]	O-rate C*07:01 (t1/2) [15] [min]	Aff A*30:02 (ED50) [17]	O-rate A*30:02 (t1/2) [18] [min]	also measured
IMYNYPTML [Rv0288_4–12m1]	88	43	28	15	7	37	0.0003 M	5						Aff A*02:01 (ED50) [2]: 4e-07 M; O-rate A*02:01 (t1/2) [3]: 240 min; Aff A*24:02 (ED50) [5]: 800 nM; O-rate A*24:02 (t1/2) [6]: 30 min
AMEDLVRAY [Rv0288_61–69]						14		46	0	5e-06 M	6			
VRAYHAMSS [Rv0288_66–74]						10		79	29	1e-06 M	12			
YNYPAMLGH [Rv0288_6–14]						0		48	30	7e-06 M	18			
RAVKPT GSA	19	0	4	18	84	72	5E -07 M	82	10	2E -07 M	84			O-rate B*58:01 (t1/2) [16]: 18 min
I NT P AF E WY	0	20	10	132	2	54	5e-07 M	41	9	6E -07 M	60	7E -07 M	114	O-rate B*58:01 (t1/2) [16]: 30 min
LAAYHPQQF	39	52	0	66	74	13		84	37	1E -07 M	24	3e-07 M	66	
NNSPAVYLL	16	49	0	0	0	0		70	28	2e-07 M	36			
QIMYNYPTM [Rv0288_3–11m1]	51	40	12	23	5	9								Aff A*02:01 (ED50) [2]: 3e-06 M; O-rate A*02:01 (t1/2) [3]: 42 min; Aff A*24:02 (ED50) [5]: 2000 nM; O-rate A*24:02 (t1/2) [6]: 30 min
ANNTRLWVY	5	32	19	195	9	19		113	0	5e-09 M	42	2e-08 M	114	
QT YKWETFL	60	110	0	41	0	40	2E -08 M	15	46			2E -08 M	60	Aff A*02:01 (ED50) [2]: 3E -07 M; O-rate A*02:01 (t1/2) [3]: 156 min; Aff A*24:02 (ED50) [5]: 20 nM; O-rate A*24:02 (t1/2) [6]: 120 min; Aff A*68:01 (ED50) [19]: 2E -07 M; O-rate A*68:01 (t1/2) [20]: 42 min; O-rate B*58:01 (t1/2) [16]: 90 min
LAAAWGGSG [Rv3875_39-47]					4						60		126	Bind A*02:01 ([1]; percent relative the binding of positive control peptide FLPSDFFPSV): 8%; Bind A*24:02 ([4]; percent relative the binding of positive control peptide RYLKDQQLL): 4%; Bind A*30:01 ([7]; percent relative the binding of positive control peptide KTKDIVNGL): 14%; Bind A*30:02 ([8]; percent relative the binding of positive control peptide KIQNFRVYY): 114%; Aff A*30:02 (ED50) [17, 22]: 7e-09 M; Bind A*68:01 ([13]; percent relative the binding of positive control peptide KTGGPIYKR): 10%; Bind B*58:01 ([10]; percent relative the binding of positive control peptide IAMESIVIW): 7%; Bind C*07:01 ([12]; percent relative the binding of positive control peptide KYFDEHYEY): 120%; Aff C*07:01 (ED50) [14, 22]: 4e-08 M
